Data: ChEMBL document CHEMBL4739717, “Methods of treating cartilage disorders through inhibition of clk and dyrk” (2020)

Key:
[1] = Inhibition of IL1-beta induced MMP3 expression levels in human chondrocytes assessed as MMP3 levels incubated for 2hrs followed by IL1-beta stimulation and measured after overnight incubation by LANCE assay; type: functional, cell-based; settings: Chondrocyte
[2] = molecular target: Dual specificity tyrosine-phosphorylation-regulated kinase 1A (Homo sapiens, UniProt Q13627); assay: Inhibition of recombinant DYRK1A (unknown origin) using Ser/Thr 18 peptide as substrate incubated for 1 hr in presence of ATP by FRET assay
[3] = Effect on Wnt signaling pathway in human SW480 cells harbouring TCF/LEF luciferase reporter gene and SP5-Luc reporter gene incubated for 36 to 48 hrs by luminescence assay; type: cell-based

| Compound | EC50 [1] [nM] | EC50 [2] [nM] | EC50 [3] [nM] |
| --- | --- | --- | --- |
| O=C(Nc1cncc(-c2ccc3[nH]nc(-c4nc5c(-c6cccnc6)cncc5[nH]4)c3c2)c1)c1ccccc1 | 1.9 | 6 | > 10000 |
| O=C(Nc1ccc(CN2CCCC2)cc1)c1n[nH]c2ccc(-c3cccnc3F)cc12 | 3000 | 1 | 196 |
| Cc1[nH]nc(C(=O)Nc2ccc(CN3CCCC3)cc2)c1/C=C/c1cccnc1 | 1050 | 33 | 2150 |
| CN1CCC(Oc2ncc(NC(=O)c3n[nH]c4cc(F)c(-c5cnn(C)c5)cc34)cc2F)CC1 | 12.6 | 1 | 1150 |
| Cc1n[nH]c2ccc(-c3cncc(N4CC(C)(N)C4)n3)cc12 | 1610 | 63 | 3510 |
| Fc1cccc(-c2cncc3[nH]c(-c4n[nH]c5cnc(-c6cncc(OC7CCNCC7)c6)cc45)nc23)c1 | 1710 | 5 | > 10000 |
| O=C(Nc1ccc(N2CCNCC2)nc1)c1n[nH]cc1/C=C/c1cccnc1 | 0.2 | 1 | 1650 |
| CC(C)NC(=O)c1n[nH]c2ccc(-c3cncc(NC4CCNCC4)n3)cc12 | 2740 | 1 | 2400 |
| O=C(Nc1cc2cc(-c3cnn4c3CCNC4)ccc2cn1)c1ccc(OC(F)F)cc1 | 1920 | 6 | 375 |
| Cc1n[nH]c2ccc(-c3cncc(N4CCC[C@H](N)C4)n3)cc12 | 3000 | 50 | 1430 |
| COc1ccc(NC(=O)c2n[nH]c3ccc(-c4cncc(CO)c4)cc23)cn1 | 3000 | 1 | 96.6 |
| Cn1cc(-c2cc3c(C(=O)Nc4ccc(OCCN5CCCC5)cc4)n[nH]c3cc2F)cn1 | 3000 | 1 | 315 |
| Cn1ncc(-c2ccc3cnc(NC(=O)[C@H]4CC[C@H](CO)CC4)cc3c2)c1CN1CCCCC1 | 3000 | 3 | 594 |
| O=C(Nc1cccnc1)c1n[nH]c2ncc(-c3cccnc3)cc12 | 2.2 | 6 | 795 |
| Cc1n[nH]c2ccc(-c3cc(OC[C@H](N)Cc4ccccc4)cnn3)cc12 | 3000 | 32 | 1150 |
| Cc1n[nH]c2ccc(-c3cncc(N4CCC(O)CC4)n3)cc12 | 47.8 | 22 | 1900 |
| CC(C)CC(=O)Nc1cncc(-c2cnc3[nH]nc(-c4nc5c(-c6cccc(F)c6)cncc5[nH]4)c3c2)c1 | 3000 | 2 | 0.6 |
| COc1cncc(C(=O)Nc2c[nH]nc2C(=O)Nc2ccc3c(c2)CCN(C)C3)c1 | 3000 | 8 | 558 |
| O=C(Nc1ccc(OCCN2CCCC2)cc1)c1n[nH]cc1/C=C/c1cccnc1 | 3000 | 4 | 1850 |
| O=C(Nc1cccnc1)c1n[nH]c2cnc(-c3cncc(CN4CCCCC4)c3)cc12 | 138 | 4 | 848 |
| CCN(C)Cc1cncc(-c2cnc3[nH]nc(-c4nc5c(-c6cccc(F)c6)cncc5[nH]4)c3c2)c1 | 0.8 | 8 | 643 |
| O=C(Nc1ccc(OC(F)F)cc1)c1n[nH]c2ccc(-c3cnc4n3CCNC4)cc12 | 13 | 16 | 684 |
| Cc1ccncc1-c1cc2c(-c3nc4c(-c5cc(F)cc(CNS(C)(=O)=O)c5)cncc4[nH]3)n[nH]c2cn1 | 604 | 6 | 96.6 |
| CC(C)n1cc(C(=O)Nc2cc3cc(-c4cncn4C)ccc3cn2)cn1 | 1430 | 2 | 34.8 |

| Compound | EC50 [1] [nM] | EC50 [2] [nM] | EC50 [3] [nM] |
| --- | --- | --- | --- |
| Cc1ncc(C(=O)Nc2cc3cc(-c4cnc(C)n4C)ccc3cn2)s1 | 3000 | 1 | 102 |
| CN1CCC(Oc2ccc(NC(=O)c3n[nH]cc3/C=C/c3cccnc3)cn2)CC1 | 3000 | 1 | 964 |
| Nc1ncc(NC(=O)c2n[nH]c3ccc(-c4cncc(CN5CCCCC5)c4)cc23)cn1 | 180 | 1 | 30 |
| O=C(Nc1ccc(N2CC(CO)(CO)C2)nc1)c1n[nH]c2ccc(-c3cncc(CN4CCCCC4)c3)cc12 | 6.7 | 2 | 1500 |
| O=C(Nc1ccc(N2CCCC2)nc1)c1n[nH]c2ccc(-c3cncc(CN4CCC4)c3)cc12 | 3000 | 3 | > 10000 |
| Cc1cn(-c2cncc3[nH]c(-c4n[nH]c5ccc(-c6cncc(NC(=O)CC(C)C)c6)cc45)nc23)cn1 | 845 | 1 | 4570 |
| O=C(Nc1cnccn1)c1n[nH]c2ccc(-c3cncc(CN4CCCCCC4)c3)cc12 | 3000 | 2 | 430 |
| COc1cncc(C(=O)Nc2c[nH]nc2C(=O)Nc2ccc(CN(C)C)cc2)c1 | 3000 | 10 | 123 |
| Cc1ncc(-c2ccc3[nH]nc(-c4nc5c(-c6cc(F)cc(NCCN(C)C)c6)ccnc5[nH]4)c3n2)n1C | 12.8 | 8 | 620 |
| CCC1(N)CN(c2cncc(-c3ccc4[nH]nc(C)c4c3)n2)C1 | 3000 | 54 | 1730 |
| Cn1cc(-c2cc3c(C(=O)Nc4ccc5c(c4)CNC5)n[nH]c3cc2F)cn1 | 1200 | 2 | 793 |
| CN1CCC(n2cc(C(=O)Nc3cc4cc(-c5cncc6[nH]ccc56)ccc4cn3)cn2)CC1 | 40.1 | 3 | 13.3 |
| Cc1ncc(NC(=O)c2n[nH]c3ccc(-c4cnn(C5CCN(C)CC5)c4)cc23)s1 | 3000 | 3 | 95 |
| COc1ccc(NC(=O)c2n[nH]cc2/C=C/c2cncc(CN3CCCCC3)c2)cn1 | 3000 | 5 | 1450 |
| CS(=O)(=O)c1ccc(NC(=O)c2n[nH]c3ccc(-c4cncc(CN5CCCCC5)c4)cc23)cn1 | 5.5 | 1 | 27 |
| Cc1[nH]nc(C(=O)Nc2ccc(OC3CCN(C)CC3)nc2)c1/C=C/c1cccnc1 | 17.8 | 20 | > 10000 |
| Cc1nnc(C(=O)Nc2cc3cc(-c4cncn4C)ccc3cn2)s1 | 71.5 | – | 1890 |
| CCNCc1cncc(-c2ccc3[nH]nc(-c4nc5c(-c6ccccn6)nccc5[nH]4)c3c2)c1 | 2.4 | 10 | 2130 |
| O=C(Nc1ccc(CN2CCCC2)cc1)c1n[nH]c2ccc(-c3cnccn3)cc12 | 7.1 | 4 | 1660 |
| O=C(Nc1cc2cc(-c3cncc(NC4CCNCC4)n3)ncc2cn1)C1CCOCC1 | 46.6 | – | 3640 |
| CN1CCN(c2cc(C(=O)Nc3cc4cc(-c5ccc(N)nc5)ccc4cn3)ccn2)CC1 | 798 | – | 710 |
| O=C(Nc1ccc(CN2CCCC2)cc1)c1n[nH]c2ccc(-c3cncnc3)cc12 | 307 | – | 1310 |
| Cc1n[nH]c2ccc(-c3cncc(OCCN)c3)cc12 | 3000 | – | 1640 |
| CC(C)Nc1cncc(-c2ccc3cnc(NC(=O)c4cccc(C5CCN(C)CC5)c4)cc3c2)n1 | 3000 | – | 132 |
